Where two headings read alike, the source gives them in different places.
How the values were obtained:
[1] = test system: SARS-CoV-2 pseudovirus (BacMam) entry into ACE2 expressing host cells (HEK293T); test: microbe, parasite or virus in culture; assay type: cell-based, SARS-CoV-2 pseudovirus / human cells; settings: Severe acute respiratory syndrome-related coronavirus, HEK-293T, read-out: IC50, inhibition of pseudovirus entry (BacMam)
[2] = target: SARS-CoV-S1S2-hACE2 PPI (Severe acute respiratory syndrome coronavirus, UniProt P59594); test: biochemical; assay type: binding, SARS-CoV / human
[3] = target: SARS-CoV-2-RBD-hACE2 PPI (Severe acute respiratory syndrome coronavirus 2, UniProt P0DTC2); test: biochemical; assay type: binding, SARS-CoV-2 / human
[4] = read-out: IC50, SARS-CoV S-hACE2 assay
[5] = read-out: IC50, SARS-CoV-2 S-ACE2 assay

Compound O=C(Nc1ccc(-c2ccc(C(=O)Nc3cccc4cc(S(=O)(=O)O)ccc34)cc2)cc1)c1ccc([N+](=O)[O-])cc1 [Compound A2, 5-(4′-(4-Nitrobenzamido)biphenyl-4-ylcarboxamido)naphthalene-2-sulfonic acid] has an IC50 [1] of 5.6 µM and an IC50 [2] of 3400 nM.
In the case of O=C(Nc1ccc2cc(S(=O)(=O)O)cc(O)c2c1)c1ccc(-c2ccc(C(=O)Nc3ccc4cc(S(=O)(=O)O)cc(O)c4c3)cc2)cc1 [Compound A5], the IC50 ([3]; IC50, SARS-CoV-2 S-ACE2 assay) is reported as 160 nM and the IC50 [2] is reported as 240 nM.
Compound Nc1c(/N=N/c2ccc(-c3ccc(/N=N/c4cc(S(=O)(=O)O)c5ccccc5c4N)cc3)cc2)cc(S(=O)(=O)O)c2ccccc12 [Congo red] has an IC50 [1] of 20 µM and an IC50 [2, 4] of 3900 nM.
For Cc1cc(-c2ccc(/N=N/c3ccc4c(S(=O)(=O)O)cc(S(=O)(=O)O)c(N)c4c3O)c(C)c2)ccc1/N=N/c1ccc2c(S(=O)(=O)O)cc(S(=O)(=O)O)c(N)c2c1O [Evans blue], the IC50 [2, 4] was 1300 nM.
Compound CCOc1ccc(N=Nc2ccc(-c3ccc(N=Nc4c(O)ccc5cc(S(=O)(=O)O)cc(S(=O)(=O)O)c45)c(C)c3)cc2C)cc1 [calcomine scarlet 3B] has an IC50 [3, 5] of 4250 nM and an IC50 [2, 4] of 9900 nM.
Nc1ccc(N=Nc2ccc(-c3ccc(N=Nc4c(S(=O)(=O)O)cc5cc(S(=O)(=O)O)c(N=Nc6ccccc6)c(O)c5c4N)cc3)cc2)c(N)c1 [chlorazol black] was tested, and the IC50 [3, 5] was 2570 nM.
Nc1ccc2cc(S(=O)(=O)O)cc(O)c2c1N=Nc1ccc(-c2ccc(N=Nc3c(N)ccc4cc(S(=O)(=O)O)cc(O)c34)cc2)cc1 [direct violet 1] gave an IC50 [2, 4] of 2600 nM.

— patent US20230381159A1 (priority 2020, published 2023)
